Data as given in US10849322B2, “Use of hibiscus acid and derivatives thereof as antimicrobials against antibiotic-resistant and non-antibiotic-resistant microorganisms” (UNIVERSIDAD AUTONOMA DEL ESTADO DE HIDALGO, priority 2015, dated 2020).

Experiments:
Salmonella choleraesuis = experiment: Disc diffusion, zones of inhibition in culture medium; type: cell-based; conditions: column F, average of four repetitions
Procedure: (§1) […]. Select mutants resistant to the antibiotic rifampicin (R+) to eliminate the interference of the native microbial flora of Hibiscus acid and derivatives (Castro-Rosas and Escartín, 2000). Maintain the R+ strains at 4-7° C. on blood-based agar (ABS, Merck®, Germany) with biweekly transfers, activating tripticasein soy broth (CST, Bioxon®, Mexico) with incubation at 35° C./24 h.
(§2) Prepare cultures of each one of the R+ study bacteria in tubes of 13×100 mm containing 3 ml of Tripticasein Soy Broth (TSB) incubating at 35° C. for 24 hours. Subsequently, centrifuge the cultures at 3500 rpm for 20 minutes. Then discard the supernatant and resuspend the cell pack by adding 3 ml of sterile isotonic saline solution (ISS) and agitate in vortex for 10 seconds. Repeat the previous procedure two more times. Subsequently, dilute each culture of the washed strains in a decimal proportion with ISS.
(§3) From the dry fractions (collections) prepare aqueous solutions using a solution of Polysorbate 80:water that was previously prepared in a ratio of 20:80. To this solution of polysorbate 80:water, add each dry fraction or chromatographic collection separately in a 1:9 ratio, in clean jars.
(§4) Separately, place 100 μL of the first dilution of the washed and diluted cultures on boxes of Agar Soya Tripticasa (AST) supplemented with 100 mg/L of the antibiotic rifampin; distribute the inoculum over the entire surface of the agar using the surface extension technique. Place on the inoculated boxes, separately, filter paper discs of a size of 0.5 cm and on the disks place aliquots of 10 μL of the solution of the chromatographic fractions. Perform four repetitions for each treatment. After the aliquots of the fractions or collections are absorbed by the agar, incubate the culture boxes at 35° C. for 24 hours.

[1] = test system: Salmonella Typhimurium R+; experiment: as above; type: cell-based; conditions: E = Salmonella Typhimurium R+ (resistant to 14 antibiotics), average of four repetitions
Procedure: as §1, §2, §3, §4

Listeria monocytogenes = experiment: as above; type: cell-based; conditions: I = Listeria monocytogenes, average of four repetitions
Procedure: as §1, §2, §3, §4

Staphylococcus aureus = experiment: as above; type: cell-based; conditions: K = Staphylococcus aureus, average of four repetitions
Procedure: as §1, §2, §3, §4

Shigella flexneri = experiment: as above; type: cell-based; conditions: H = Shigella flexneri, average of four repetitions
Procedure: as §1, §2, §3, §4

Pseudomonas aeruginosa = experiment: as above; type: cell-based; conditions: column L, average of four repetitions
Procedure: as §1, §2, §3, §4

Shigella sonnei = experiment: as above; type: cell-based; conditions: G = Shigella sonnei, average of four repetitions
Procedure: as §1, §2, §3, §4

V. cholerae O1 = experiment: as above; type: cell-based; conditions: M = V. cholerae O1, average of four repetitions
Procedure: as §1, §2, §3, §4

L. monocytogenes scott A = experiment: as above; type: cell-based, Listeria monocytogenes; conditions: J = L. monocytogenes scott A, average of four repetitions
Procedure: as §1, §2, §3, §4

E. coli enterotoxigenic = experiment: as above; type: cell-based, Escherichia coli; conditions: C = E. coli enterotoxigenic, average of four repetitions
Procedure: as §1, §2, §3, §4

E. coli enteropathogenic = experiment: as above; type: cell-based, Escherichia coli; conditions: D = E. coli enteropathogenic, average of four repetitions
Procedure: as §1, §2, §3, §4

E coli O157H7 = experiment: as above; type: cell-based, Escherichia coli; conditions: A = E coli O157H7, average of four repetitions
Procedure: as §1, §2, §3, §4

E. coli enteroinvasive = experiment: as above; type: cell-based, Escherichia coli; conditions: B = E. coli enteroinvasive, average of four repetitions
Procedure: as §1, §2, §3, §4

[2] = test system: 13 different microorganisms; experiment: Antimicrobial effect in culture medium, whole panel; type: cell-based; conditions: against the control; all study microorganisms
Procedure: as §1, §2
From the dry fractions (collections) prepare aqueous solutions using a solution of Polysorbate 80:water that was previously prepared in a ratio of 20:80. To this solution of polysorbate 80:water, add each dry fraction or chromatographic collection separately in a 1:9 ratio, in clean jars. […]

Q: For `COC(=O)[C@@]1(O)CC(=O)O[C@@H]1C(=O)O` [Compound 2, mono ester methyl of hibiscus acid], which Zones of inhibition (Salmonella choleraesuis) is on record?
A: The Zones of inhibition was 10 mm.

Q: What about the Zones of inhibition [1] of the same molecule?
A: The Zones of inhibition was 10 mm.

Q: And the Zones of inhibition (Listeria monocytogenes)?
A: Its Zones of inhibition is 8 mm.

Q: And the Zones of inhibition (Staphylococcus aureus)?
A: Its Zones of inhibition is 10 mm.

Q: What about the Zones of inhibition (Shigella flexneri) of the same molecule?
A: The Zones of inhibition was 10 mm.

Q: And the Zones of inhibition (Pseudomonas aeruginosa)?
A: Its Zones of inhibition is 8 mm.

Q: And the Zones of inhibition (Shigella sonnei)?
A: The Zones of inhibition was 10 mm.

Q: What about the Zones of inhibition (V. cholerae O1) of the same molecule?
A: Its Zones of inhibition is 12 mm.

Q: And the Zones of inhibition (L. monocytogenes scott A)?
A: The Zones of inhibition was 8 mm.

Q: And the Zones of inhibition (E. coli enterotoxigenic)?
A: The Zones of inhibition was 10 mm.

Q: And the Zones of inhibition (E. coli enteropathogenic)?
A: The Zones of inhibition was 10 mm.

Q: And the Zones of inhibition (E coli O157H7)?
A: Its Zones of inhibition is 10 mm.

Q: And the Zones of inhibition (E. coli enteroinvasive)?
A: The Zones of inhibition was 10 mm.

Q: Which results are given for `CCOC(=O)C[C@](O)(C(=O)OCC)[C@@H](O)C(=O)OCC` [Compound 6, tri-ethyl ester of hydroxycitric acid]?
A: Zones of inhibition (Salmonella choleraesuis): 5 mm; Zones of inhibition [1]: 5 mm; Zones of inhibition (Listeria monocytogenes): 5 mm; Zones of inhibition (Staphylococcus aureus): 5 mm; Zones of inhibition (Shigella flexneri): 5 mm; Zones of inhibition (Pseudomonas aeruginosa): 5 mm; Zones of inhibition (Shigella sonnei): 5 mm; Zones of inhibition (V. cholerae O1): 6 mm; Zones of inhibition (L. monocytogenes scott A): 5 mm; Zones of inhibition (E. coli enterotoxigenic): 5 mm; Zones of inhibition (E. coli enteropathogenic): 5 mm; Zones of inhibition (E coli O157H7): 5 mm; Zones of inhibition (E. coli enteroinvasive): 5 mm; antimicrobial effect (zone of inhibition, in words) [2]: lowest

Q: Which results are given for `O=C1C[C@](O)(C(=O)O)[C@@H](C(=O)O)O1` [Compound 1, hibiscus acid]?
A: Zones of inhibition (Salmonella choleraesuis): 10 mm; Zones of inhibition [1]: 12 mm; Zones of inhibition (Listeria monocytogenes): 10 mm; Zones of inhibition (Staphylococcus aureus): 10 mm; Zones of inhibition (Shigella flexneri): 10 mm; Zones of inhibition (Pseudomonas aeruginosa): 10 mm; Zones of inhibition (Shigella sonnei): 10 mm; Zones of inhibition (V. cholerae O1): 14 mm; Zones of inhibition (L. monocytogenes scott A): 10 mm; Zones of inhibition (E. coli enterotoxigenic): 10 mm; Zones of inhibition (E. coli enteropathogenic): 11 mm; Zones of inhibition (E coli O157H7): 10 mm; Zones of inhibition (E. coli enteroinvasive): 12 mm; antimicrobial effect (zone of inhibition, in words) [2]: maximum zone of inhibition

Q: Which Zones of inhibition (Salmonella choleraesuis) does the source give for `CCOC(=O)[C@H]1OC(=O)C[C@]1(O)C(=O)OCC` [Compound 5, di-ester ethyl of hibiscus acid] here?
A: Its Zones of inhibition is 6 mm.

Q: What about the Zones of inhibition [1] of the same molecule?
A: The Zones of inhibition was 6 mm.

Q: And the Zones of inhibition (Listeria monocytogenes)?
A: The Zones of inhibition was 6 mm.

Q: What about the Zones of inhibition (Staphylococcus aureus) of the same molecule?
A: The Zones of inhibition was 6 mm.

Q: What about the Zones of inhibition (Shigella flexneri) of the same molecule?
A: Its Zones of inhibition is 6 mm.

Q: And the Zones of inhibition (Pseudomonas aeruginosa)?
A: The Zones of inhibition was 6 mm.

Q: And the Zones of inhibition (Shigella sonnei)?
A: Its Zones of inhibition is 6 mm.

Q: What about the Zones of inhibition (V. cholerae O1) of the same molecule?
A: Its Zones of inhibition is 8 mm.

Q: And the Zones of inhibition (L. monocytogenes scott A)?
A: The Zones of inhibition was 6 mm.

Q: What about the Zones of inhibition (E. coli enterotoxigenic) of the same molecule?
A: Its Zones of inhibition is 6 mm.

Q: And the Zones of inhibition (E. coli enteropathogenic)?
A: Its Zones of inhibition is 6 mm.

Q: And the Zones of inhibition (E coli O157H7)?
A: The Zones of inhibition was 6 mm.

Q: What about the Zones of inhibition (E. coli enteroinvasive) of the same molecule?
A: Its Zones of inhibition is 6 mm.

Q: What does the source list for `COC(=O)[C@H]1OC(=O)C[C@]1(O)C(=O)OC` [Compound 3, di-ester methyl of hibiscus acid]?
A: Zones of inhibition (Salmonella choleraesuis): 8 mm; Zones of inhibition [1]: 8 mm; Zones of inhibition (Listeria monocytogenes): 8 mm; Zones of inhibition (Staphylococcus aureus): 8 mm; Zones of inhibition (Shigella flexneri): 8 mm; Zones of inhibition (Pseudomonas aeruginosa): 8 mm; Zones of inhibition (Shigella sonnei): 8 mm; Zones of inhibition (V. cholerae O1): 10 mm; Zones of inhibition (L. monocytogenes scott A): 8 mm; Zones of inhibition (E. coli enterotoxigenic): 8 mm; Zones of inhibition (E. coli enteropathogenic): 8 mm; Zones of inhibition (E coli O157H7): 8 mm; Zones of inhibition (E. coli enteroinvasive): 8 mm

Q: What does the source list for `CCOC(=O)[C@@]1(O)CC(=O)O[C@@H]1C(=O)O` [Compound 4, mono ester ethyl of hibiscus acid]?
A: Zones of inhibition (Salmonella choleraesuis): 6 mm; Zones of inhibition [1]: 6 mm; Zones of inhibition (Listeria monocytogenes): 6 mm; Zones of inhibition (Staphylococcus aureus): 6 mm; Zones of inhibition (Shigella flexneri): 6 mm; Zones of inhibition (Pseudomonas aeruginosa): 6 mm; Zones of inhibition (Shigella sonnei): 6 mm; Zones of inhibition (V. cholerae O1): 8 mm; Zones of inhibition (L. monocytogenes scott A): 6 mm; Zones of inhibition (E. coli enterotoxigenic): 6 mm; Zones of inhibition (E. coli enteropathogenic): 6 mm; Zones of inhibition (E coli O157H7): 6 mm; Zones of inhibition (E. coli enteroinvasive): 6 mm
